{"source": "paper PMC10176470", "about": "“Engaging a Non-catalytic Cysteine Residue Drives Potent and Selective Inhibition of Caspase-6” (Journal of the American Chemical Society, 2023)", "key": {"[1]": {"target": "proteins of HEK293T cells transiently overexpressing caspase-6 (Homo sapiens, UniProt Q01082)", "sequence (Q01082 whole entry)": "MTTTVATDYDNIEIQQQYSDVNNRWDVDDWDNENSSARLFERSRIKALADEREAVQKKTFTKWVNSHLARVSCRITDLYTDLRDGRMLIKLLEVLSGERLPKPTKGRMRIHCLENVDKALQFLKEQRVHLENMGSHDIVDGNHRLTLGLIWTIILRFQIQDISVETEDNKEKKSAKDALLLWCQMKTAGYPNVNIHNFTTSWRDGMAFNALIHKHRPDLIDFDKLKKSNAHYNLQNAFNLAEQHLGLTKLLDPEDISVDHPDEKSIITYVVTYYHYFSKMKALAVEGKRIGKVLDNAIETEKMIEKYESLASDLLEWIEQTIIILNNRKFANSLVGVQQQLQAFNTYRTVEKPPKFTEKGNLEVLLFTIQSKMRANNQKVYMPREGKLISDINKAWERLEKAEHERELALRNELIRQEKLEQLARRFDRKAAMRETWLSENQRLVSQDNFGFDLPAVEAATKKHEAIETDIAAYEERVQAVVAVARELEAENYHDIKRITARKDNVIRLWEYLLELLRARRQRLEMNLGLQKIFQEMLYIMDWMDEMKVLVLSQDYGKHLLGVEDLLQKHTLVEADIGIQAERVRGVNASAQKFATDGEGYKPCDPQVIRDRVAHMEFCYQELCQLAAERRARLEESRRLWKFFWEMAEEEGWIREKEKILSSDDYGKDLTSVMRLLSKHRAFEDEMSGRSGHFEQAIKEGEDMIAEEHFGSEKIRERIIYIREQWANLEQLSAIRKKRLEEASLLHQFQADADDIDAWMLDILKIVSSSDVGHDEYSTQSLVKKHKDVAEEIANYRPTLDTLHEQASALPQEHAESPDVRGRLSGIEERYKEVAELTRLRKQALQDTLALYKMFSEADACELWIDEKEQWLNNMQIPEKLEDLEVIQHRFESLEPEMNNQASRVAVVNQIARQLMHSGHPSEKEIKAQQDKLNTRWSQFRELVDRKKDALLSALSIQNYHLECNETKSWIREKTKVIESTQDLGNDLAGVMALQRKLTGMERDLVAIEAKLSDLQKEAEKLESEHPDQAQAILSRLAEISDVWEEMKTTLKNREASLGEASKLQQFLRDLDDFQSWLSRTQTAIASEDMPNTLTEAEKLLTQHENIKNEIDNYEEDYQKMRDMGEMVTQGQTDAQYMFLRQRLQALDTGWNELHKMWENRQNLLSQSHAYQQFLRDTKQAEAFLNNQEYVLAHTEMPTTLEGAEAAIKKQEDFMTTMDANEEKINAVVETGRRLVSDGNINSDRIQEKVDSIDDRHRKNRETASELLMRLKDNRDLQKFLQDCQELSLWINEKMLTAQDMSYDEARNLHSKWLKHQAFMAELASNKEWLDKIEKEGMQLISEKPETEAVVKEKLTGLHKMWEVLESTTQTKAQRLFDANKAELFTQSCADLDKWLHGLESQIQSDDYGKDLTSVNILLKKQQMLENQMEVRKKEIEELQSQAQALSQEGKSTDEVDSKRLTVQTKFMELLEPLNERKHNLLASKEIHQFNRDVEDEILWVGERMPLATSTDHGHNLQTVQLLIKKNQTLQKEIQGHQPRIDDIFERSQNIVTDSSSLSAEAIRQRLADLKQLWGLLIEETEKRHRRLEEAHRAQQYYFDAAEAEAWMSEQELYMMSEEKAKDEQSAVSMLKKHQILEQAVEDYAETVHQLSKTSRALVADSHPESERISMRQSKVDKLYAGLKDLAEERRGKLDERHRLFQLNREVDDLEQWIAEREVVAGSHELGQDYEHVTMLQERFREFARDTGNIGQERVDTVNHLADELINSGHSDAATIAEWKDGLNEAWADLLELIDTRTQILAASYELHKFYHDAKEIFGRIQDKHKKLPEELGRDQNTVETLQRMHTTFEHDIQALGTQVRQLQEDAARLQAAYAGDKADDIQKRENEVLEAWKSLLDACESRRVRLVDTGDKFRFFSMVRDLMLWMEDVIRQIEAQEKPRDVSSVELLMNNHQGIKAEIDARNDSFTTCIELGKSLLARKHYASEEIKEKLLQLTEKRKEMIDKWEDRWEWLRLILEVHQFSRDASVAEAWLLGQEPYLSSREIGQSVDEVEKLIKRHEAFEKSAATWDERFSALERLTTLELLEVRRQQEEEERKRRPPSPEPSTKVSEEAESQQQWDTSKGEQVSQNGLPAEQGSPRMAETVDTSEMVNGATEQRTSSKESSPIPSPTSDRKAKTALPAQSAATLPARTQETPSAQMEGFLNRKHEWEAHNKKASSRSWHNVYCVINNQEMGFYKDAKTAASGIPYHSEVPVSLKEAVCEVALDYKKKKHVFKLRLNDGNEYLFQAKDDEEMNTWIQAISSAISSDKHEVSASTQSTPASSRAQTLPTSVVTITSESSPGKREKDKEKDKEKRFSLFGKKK", "assay_type": "cell-based", "conditions": "Probe; protein SPTBN1 Q01082"}, "[2]": {"target": "proteins of HEK293T cells transiently overexpressing caspase-6 (Homo sapiens, UniProt P27797)", "sequence (P27797 18-417)": "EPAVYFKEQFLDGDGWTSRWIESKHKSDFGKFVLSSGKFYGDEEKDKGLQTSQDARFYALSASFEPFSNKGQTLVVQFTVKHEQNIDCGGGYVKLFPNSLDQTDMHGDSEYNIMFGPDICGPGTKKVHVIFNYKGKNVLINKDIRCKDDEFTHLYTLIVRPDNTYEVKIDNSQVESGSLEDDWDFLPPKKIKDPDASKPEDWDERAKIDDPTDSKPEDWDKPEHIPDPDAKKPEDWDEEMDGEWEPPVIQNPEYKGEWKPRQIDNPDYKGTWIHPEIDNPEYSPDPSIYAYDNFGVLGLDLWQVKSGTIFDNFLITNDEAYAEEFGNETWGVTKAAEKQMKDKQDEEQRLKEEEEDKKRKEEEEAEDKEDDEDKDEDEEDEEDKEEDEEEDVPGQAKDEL", "assay_type": "cell-based", "conditions": "exp_ref Probe; protein CALR (P27797); analysis C6"}, "[3]": {"target": "proteins of HEK293T cells transiently overexpressing caspase-6 (Homo sapiens, UniProt P47756)", "sequence (P47756 whole entry)": "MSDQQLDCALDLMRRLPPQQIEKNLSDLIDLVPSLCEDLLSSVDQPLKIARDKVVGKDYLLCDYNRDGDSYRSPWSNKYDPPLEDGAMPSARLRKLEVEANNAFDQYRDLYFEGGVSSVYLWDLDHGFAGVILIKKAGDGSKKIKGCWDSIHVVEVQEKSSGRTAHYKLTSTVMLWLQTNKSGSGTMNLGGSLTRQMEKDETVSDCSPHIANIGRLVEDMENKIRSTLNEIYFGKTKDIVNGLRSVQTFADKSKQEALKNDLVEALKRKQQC", "assay_type": "cell-based", "conditions": "Probe; protein CAPZB P47756"}, "[4]": {"target": "T1, proteins of HEK293T cells transiently overexpressing caspase-6 (Homo sapiens, UniProt P05141)", "T1 sequence (P05141 whole entry)": "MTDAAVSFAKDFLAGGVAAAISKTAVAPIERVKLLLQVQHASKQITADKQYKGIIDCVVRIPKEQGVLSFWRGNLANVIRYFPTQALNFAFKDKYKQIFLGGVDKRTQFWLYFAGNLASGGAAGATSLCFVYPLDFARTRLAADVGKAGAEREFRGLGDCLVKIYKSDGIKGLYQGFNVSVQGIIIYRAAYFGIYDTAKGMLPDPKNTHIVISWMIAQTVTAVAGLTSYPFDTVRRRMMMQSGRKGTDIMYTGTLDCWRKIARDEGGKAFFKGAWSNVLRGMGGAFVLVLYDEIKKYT", "assay_type": "cell-based", "conditions": "exp_ref Probe; protein SLC25A5 (P05141); analysis C6"}, "caspase-2 (C2)": {"target": "caspase-2 (C2) (Homo sapiens, UniProt P42575)", "assay": "Caspase-2 biochemical activity assay with fluorogenic substrate", "excerpt": "Error bars represent the standard deviation of thre replicate measurements. […] Activity measured by the cleavage of aminofluorocoumarin-labeled peptides (see the Supporting Information for sequences). C = caspase."}, "[5]": {"target": "proteins of HEK293T cells transiently overexpressing caspase-6 (Homo sapiens, UniProt P27695)", "sequence (P27695 whole entry)": "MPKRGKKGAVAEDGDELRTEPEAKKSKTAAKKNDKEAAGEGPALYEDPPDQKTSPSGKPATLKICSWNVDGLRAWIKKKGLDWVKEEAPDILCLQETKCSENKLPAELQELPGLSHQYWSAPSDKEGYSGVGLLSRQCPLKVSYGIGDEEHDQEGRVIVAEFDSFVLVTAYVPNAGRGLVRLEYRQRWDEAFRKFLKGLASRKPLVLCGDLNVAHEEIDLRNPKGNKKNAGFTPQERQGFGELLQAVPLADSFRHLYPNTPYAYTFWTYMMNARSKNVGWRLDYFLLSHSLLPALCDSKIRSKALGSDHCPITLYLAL", "assay": "SILAC proteomics / in-gel fluorescence, competition of probe 13-t labeling by 3a", "conditions": "Comp; protein APEX1 P27695", "description": "(§1) Cells were lysed, and heavy and light SILAC lysates were combined in a 1:1 ratio and subjected to CuAAC reaction with azido-biotin to biotinylate probe-labeled proteins for subsequent capture on streptavidin-coated beads. Bead-bound proteins were split for analysis by in-gel fluorescence and tryptic digestion on-bead for LC–MS/MS analysis.\n(§2) SILAC labeling and alkyne probe treatment: HEK293T cells were seeded into 8x 15 cm plates at\n(§3) a density of 500,000 cells/plate. 4 of these plates were grown in light SILAC DMEM and 4 were\n(§4) grown in heavy SILAC DMEM all containing 10% FBS and 4.5g/L glucose. The next day, all 8\n(§5) plates were transfected with a pCMV6-Entry plasmid coding for caspase-6-myc-DDK lacking the\n(§6) prodomain. After 24 hours, media was replaced with fresh SILAC growth media containing 4.5 g/L\n(§7) glucose and 3% FBS. 24 hours later the plates were treated with probe and inhibitor for 1 hours as\n(§8) follows: 2 of the light plates were treated with vehicle, 2 light plates and 2 heavy plates treated with\n(§9) for 60 minutes. After treatment, media was removed, and cells were washed with 15 mL PBS for 5\n(§10) minutes. Cells were then harvested by scraping in cold PBS and lysed in the presence of Roche\n(§11) complete protease inhibitors. Lysates were clarified by centrifugation at 10,000xg for 10 minutes and\n(§12) the protein in the supernatant was quantified by BCA assay.\n(§13) Proteomics assay: 1 mg of each lysate was diluted to 2mg/ml in PBS with Roche complete protease\n(§14) inhibitors. To this was added 0.1 mM biotin-azide, 1 mM tris(2-carboxyethyl)phosphine (TCEP), 0.1\n(§15) mM Tris((1-benzyl-4-triazolyl)methyl)amine (TBTA) ligand, and 1 mM CuSO4 in a final volume of\n(§16) 0.5 mL. The reaction was incubated at room temperature for 1 hour and was vortexed every 15\n(§17) minutes. After 1 hour, proteins are precipitated and are pelleted by centrifuging at 16,000xg for 4\n(§18) min at 4 °C. The supernatants were discarded, and the pellets were solubilized with 0.5 mL cold\n(§19) The cold methanol wash was then repeated, and the washed\n(§20) pellets were resuspended in 1 mL of 1.2% SDS and sonicated until clear. The samples were heat\n(§21) denatured at 80-90 °C for 5 minutes and any insoluble particles were removed by centrifugation at\n(§22) 6,500xg for 5 minutes. The 1 mL supernatant was transferred to a 15 mL conical tubes containing 5\n(§23) mL of PBS and 150 µL of washed neutravidin beads were added. The samples were incubated for 2\n(§24) hours at 4 °C while rotating, at which point the samples were warmed to resolubilize any precipitated\n(§25) SDS. The beads were pelleted by centrifugation at 1400xg for 3 min and washed for 10 minutes with\n(§26) the following solutions: 2x 1% NP-40, 2x PBS + 1 M NaCl, and 2x 50 mM ammonium bicarbonate\n(§27) (ABC) + 2 M urea. The beads were then transferred to a 1.5 mL microcentrifuge tube using 2x250\n(§28) µL 100 mM Tris pH 8.0 + 4 M Guanidium hydrochloride (final volume 500 µL)."}, "[6]": {"target": "T2, proteins of HEK293T cells transiently overexpressing caspase-6 (Homo sapiens, UniProt O00567)", "T2 sequence (O00567 1-594)": "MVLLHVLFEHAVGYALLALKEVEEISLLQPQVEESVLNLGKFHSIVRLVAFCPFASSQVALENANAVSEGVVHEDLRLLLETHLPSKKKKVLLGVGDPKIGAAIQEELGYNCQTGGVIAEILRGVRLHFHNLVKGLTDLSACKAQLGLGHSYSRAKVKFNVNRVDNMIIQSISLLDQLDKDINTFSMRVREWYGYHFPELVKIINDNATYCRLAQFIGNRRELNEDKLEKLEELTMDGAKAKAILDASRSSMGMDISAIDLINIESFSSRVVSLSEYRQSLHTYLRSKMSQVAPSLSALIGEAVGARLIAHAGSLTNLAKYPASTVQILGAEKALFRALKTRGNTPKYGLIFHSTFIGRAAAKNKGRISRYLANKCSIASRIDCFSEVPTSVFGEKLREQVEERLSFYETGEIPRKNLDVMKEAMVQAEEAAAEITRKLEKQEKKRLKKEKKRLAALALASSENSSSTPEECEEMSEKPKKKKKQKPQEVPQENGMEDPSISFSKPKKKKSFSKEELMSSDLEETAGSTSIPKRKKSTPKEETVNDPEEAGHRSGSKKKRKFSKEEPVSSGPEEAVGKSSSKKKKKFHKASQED", "assay": "SILAC proteomics / in-gel fluorescence, competition of probe 13-t labeling by 3a", "description": "as §1, §2, §3, §4, §5, §6, §7, §8, §9, §10, §11, §12, §13, §14, §15, §16, §17, §18, §19, §20, §21, §22, §23, §24, §25, §26, §27, §28"}, "[7]": {"target": "proteins of HEK293T cells transiently overexpressing caspase-6 (Homo sapiens, UniProt Q14974)", "assay": "SILAC proteomics / in-gel fluorescence, competition of probe 13-t labeling by 3a", "conditions": "Comp; protein KPNB1 Q14974", "description": "as §1, §2, §3, §4, §5, §6, §7, §8, §9, §10, §11, §12, §13, §14, §15, §16, §17, §18, §19, §20, §21, §22, §23, §24, §25, §26, §27, §28"}, "[8]": {"target": "proteins of HEK293T cells transiently overexpressing caspase-6 (Homo sapiens, UniProt O00299)", "assay": "SILAC proteomics / in-gel fluorescence, competition of probe 13-t labeling by 3a", "conditions": "Comp; protein CLIC1 O00299", "description": "as §1, §2, §3, §4, §5, §6, §7, §8, §9, §10, §11, §12, §13, §14, §15, §16, §17, §18, §19, §20, §21, §22, §23, §24, §25, §26, §27, §28"}, "[9]": {"target": "proteins of HEK293T cells transiently overexpressing caspase-6 (Homo sapiens, UniProt P31946)", "sequence (P31946 whole entry)": "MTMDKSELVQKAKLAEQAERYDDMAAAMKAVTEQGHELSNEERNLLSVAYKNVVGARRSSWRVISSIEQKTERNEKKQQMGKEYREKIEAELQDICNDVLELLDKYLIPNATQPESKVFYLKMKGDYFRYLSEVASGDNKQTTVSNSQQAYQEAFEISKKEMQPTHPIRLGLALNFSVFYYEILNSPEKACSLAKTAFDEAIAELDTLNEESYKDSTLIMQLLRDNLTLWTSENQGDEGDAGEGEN", "assay": "SILAC proteomics / in-gel fluorescence, competition of probe 13-t labeling by 3a", "conditions": "Comp; protein YWHAB P31946", "description": "as §1, §2, §3, §4, §5, §6, §7, §8, §9, §10, §11, §12, §13, §14, §15, §16, §17, §18, §19, §20, §21, §22, §23, §24, §25, §26, §27, §28"}, "[10]": {"target": "proteins of HEK293T cells transiently overexpressing caspase-6 (Homo sapiens, UniProt P23526)", "sequence (P23526 whole entry)": "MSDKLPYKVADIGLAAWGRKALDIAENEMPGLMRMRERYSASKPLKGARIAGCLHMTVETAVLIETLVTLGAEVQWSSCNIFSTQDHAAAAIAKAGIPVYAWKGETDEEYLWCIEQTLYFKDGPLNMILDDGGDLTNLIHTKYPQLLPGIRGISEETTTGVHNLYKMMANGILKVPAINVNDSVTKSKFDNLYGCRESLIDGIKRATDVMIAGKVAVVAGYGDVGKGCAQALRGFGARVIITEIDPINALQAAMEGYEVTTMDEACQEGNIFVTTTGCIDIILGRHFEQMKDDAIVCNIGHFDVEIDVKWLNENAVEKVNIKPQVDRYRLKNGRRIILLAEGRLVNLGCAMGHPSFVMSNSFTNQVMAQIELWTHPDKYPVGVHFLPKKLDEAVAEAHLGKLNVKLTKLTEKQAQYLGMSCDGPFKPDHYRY", "assay": "SILAC proteomics / in-gel fluorescence, competition of probe 13-t labeling by 3a", "conditions": "Comp; protein AHCY P23526", "description": "as §1, §2, §3, §4, §5, §6, §7, §8, §9, §10, §11, §12, §13, §14, §15, §16, §17, §18, §19, §20, §21, §22, §23, §24, §25, §26, §27, §28"}, "[11]": {"target": "proteins of HEK293T cells transiently overexpressing caspase-6 (Homo sapiens, UniProt P15880)", "assay": "SILAC proteomics / in-gel fluorescence, competition of probe 13-t labeling by 3a", "conditions": "Comp; protein RPS2 P15880", "description": "as §1, §2, §3, §4, §5, §6, §7, §8, §9, §10, §11, §12, §13, §14, §15, §16, §17, §18, §19, §20, §21, §22, §23, §24, §25, §26, §27, §28"}, "[12]": {"target": "proteins of HEK293T cells transiently overexpressing caspase-6 (Homo sapiens, UniProt P11021)", "sequence (P11021 19-654)": "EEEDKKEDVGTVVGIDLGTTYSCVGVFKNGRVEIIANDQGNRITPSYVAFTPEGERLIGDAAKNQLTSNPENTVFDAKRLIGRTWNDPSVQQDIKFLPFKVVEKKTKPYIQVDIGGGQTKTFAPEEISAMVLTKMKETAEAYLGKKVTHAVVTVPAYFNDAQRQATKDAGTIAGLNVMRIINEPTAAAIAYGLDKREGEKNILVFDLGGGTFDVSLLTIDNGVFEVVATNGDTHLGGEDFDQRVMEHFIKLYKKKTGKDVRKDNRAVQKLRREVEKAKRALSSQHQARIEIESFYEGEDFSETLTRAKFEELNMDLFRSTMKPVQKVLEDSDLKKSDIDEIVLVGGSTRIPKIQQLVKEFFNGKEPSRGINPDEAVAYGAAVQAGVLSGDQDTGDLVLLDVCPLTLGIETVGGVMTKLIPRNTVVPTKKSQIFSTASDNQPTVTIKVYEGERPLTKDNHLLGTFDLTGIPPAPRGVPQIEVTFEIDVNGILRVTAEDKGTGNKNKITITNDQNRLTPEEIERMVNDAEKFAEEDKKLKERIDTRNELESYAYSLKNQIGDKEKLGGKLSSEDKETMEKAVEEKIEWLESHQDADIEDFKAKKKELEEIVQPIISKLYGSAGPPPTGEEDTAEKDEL", "assay": "SILAC proteomics / in-gel fluorescence, competition of probe 13-t labeling by 3a", "description": "as §1, §2, §3, §4, §5, §6, §7, §8, §9, §10, §11, §12, §13, §14, §15, §16, §17, §18, §19, §20, §21, §22, §23, §24, §25, §26, §27, §28"}, "[13]": {"target": "T3, proteins of HEK293T cells transiently overexpressing caspase-6 (Homo sapiens, UniProt P14324)", "T3 sequence (P14324 1-419)": "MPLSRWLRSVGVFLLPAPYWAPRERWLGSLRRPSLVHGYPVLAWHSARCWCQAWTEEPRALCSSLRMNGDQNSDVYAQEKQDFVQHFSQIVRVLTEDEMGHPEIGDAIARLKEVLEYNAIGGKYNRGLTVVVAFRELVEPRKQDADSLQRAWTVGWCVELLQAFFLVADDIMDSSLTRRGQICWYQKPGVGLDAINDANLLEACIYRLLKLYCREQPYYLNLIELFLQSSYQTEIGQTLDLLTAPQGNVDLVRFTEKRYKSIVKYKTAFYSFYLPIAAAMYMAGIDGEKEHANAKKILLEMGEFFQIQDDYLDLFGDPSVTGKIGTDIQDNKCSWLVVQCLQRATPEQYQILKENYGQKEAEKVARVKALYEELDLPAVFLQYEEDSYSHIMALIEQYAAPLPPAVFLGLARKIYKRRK", "assay": "SILAC proteomics / in-gel fluorescence, competition of probe 13-t labeling by 3a", "description": "as §1, §2, §3, §4, §5, §6, §7, §8, §9, §10, §11, §12, §13, §14, §15, §16, §17, §18, §19, §20, §21, §22, §23, §24, §25, §26, §27, §28"}, "[14]": {"target": "T1, proteins of HEK293T cells transiently overexpressing caspase-6", "assay": "SILAC proteomics / in-gel fluorescence, competition of probe 13-t labeling by 3a", "conditions": "Comp; protein SLC25A5 P05141", "description": "as §1, §2, §3, §4, §5, §6, §7, §8, §9, §10, §11, §12, §13, §14, §15, §16, §17, §18, §19, §20, §21, §22, §23, §24, §25, §26, §27, §28"}, "[15]": {"conditions": "protein NOP56 (O00567), Exp Comp, analysis C6, p 0.1250, 4 peptides"}, "[16]": {"conditions": "protein HSPA5 (P11021), Exp Comp, analysis C6, p 0.000244, 13 peptides"}, "[17]": {"conditions": "protein FDPS (P14324), Exp Comp, analysis C6, p 0.2500, 4 peptides"}}, "note": "Where two headings read alike, the source gives them in different places."}
{"smiles": "C#CCOc1ccc([C@@H]2C[C@@H](C(=O)Nc3ccc(OC(F)(F)F)cc3)CN(S(=O)(=O)C=C)C2)cc1", "note": "(relative stereo) [13-t]", "values": [{"measurement": "enrich.exp.med", "setting": "[1]", "value": -1.031}, {"measurement": "enrich.exp.med", "setting": "[2]", "value": 0.5687}, {"measurement": "enrich.exp.med", "setting": "[3]", "value": -0.5086}, {"measurement": "enrich.exp.med", "setting": "[4]", "value": 0.9373}]}
{"smiles": "C=CS(=O)(=O)N1C[C@H](C(=O)Nc2ccc(OC(F)(F)F)cc2)C[C@@H](c2ccccc2)C1", "note": "[3a]", "values": [{"measurement": "activity against C2 (in words)", "setting": "caspase-2 (C2)", "value": "lack of activity"}, {"measurement": "enrich.exp.med", "setting": "[5]", "value": 0.6367}, {"measurement": "enrich.exp.med", "setting": "[6]; Comp, protein NOP56 O00567", "value": 1.117}, {"measurement": "enrich.exp.med.lin", "setting": "[6]; [15]", "value": 2.169}, {"measurement": "enrich.exp.med.log2", "setting": "[6]; [15]", "value": 1.117}, {"measurement": "enrich.exp.med", "setting": "[7]", "value": 0.6036}, {"measurement": "enrich.exp.med", "setting": "[8]", "value": 0.583}, {"measurement": "enrich.exp.med", "setting": "[9]", "value": 0.6188}, {"measurement": "enrich.exp.med", "setting": "[10]", "value": 0.6961}, {"measurement": "enrich.exp.med", "setting": "[11]", "value": 0.7281}, {"measurement": "enrich.exp.med", "setting": "[12]; Comp, protein HSPA5 P11021", "value": 1.086}, {"measurement": "enrich.exp.med.lin", "setting": "[12]; [16]", "value": 2.123}, {"measurement": "enrich.exp.med.log2", "setting": "[12]; [16]", "value": 1.086}, {"measurement": "enrich.exp.med", "setting": "[13]; Comp, protein FDPS P14324", "value": 1.087}, {"measurement": "enrich.exp.med.lin", "setting": "[13]; [17]", "value": 2.124}, {"measurement": "enrich.exp.med.log2", "setting": "[13]; [17]", "value": 1.087}, {"measurement": "enrich.exp.med", "setting": "[14]", "value": 0.6101}]}
